Columns and labels:
Rattus norvegicus [1] = assay: Tested for the diuretic activity by measuring the urinary volume after peroral administering 0 uM/Kg of drug in rats; type: ADME, organism-based, Urine; details: in vivo, po
Rattus norvegicus [2] = assay: Total electrolytic excretion of sodium in urine of rats after peroral administration of 3.40 uM/Kg of drug; type: ADME, organism-based; details: in vivo, po
Rattus norvegicus [3] = assay: Tested for the diuretic activity by measuring the urinary volume after peroral administering 1.01 uM/Kg of drug in rats; type: ADME, organism-based, Urine; details: in vivo, po
Rattus norvegicus [4] = assay: Total electrolytic excretion of potassium in urine of rats after peroral administration of 3.40 uM/Kg of drug; type: ADME, organism-based; details: in vivo, po
Canis familiaris [5] = assay: Total electrolytic excretion of sodium in urine of dogs after peroral administration of 3.40 uM/Kg of drug; type: ADME, organism-based, Canis lupus familiaris; details: dog, in vivo, po
Rattus norvegicus [6] = assay: Total electrolytic excretion of sodium in urine of rats after peroral administration of 0 uM/Kg of drug; type: ADME, organism-based; details: in vivo, po
Rattus norvegicus [7] = assay: Total electrolytic excretion of sodium in urine of rats after peroral administration of 1.01 uM/Kg of drug; type: ADME, organism-based; details: in vivo, po
Canis familiaris [8] = assay: Tested for the diuretic activity by measuring the urinary volume after peroral administering 10.1 uM/Kg of drug in dogs; type: ADME, organism-based, Canis lupus familiaris, Urine; details: dog, in vivo, po
Rattus norvegicus [9] = assay: Tested for the diuretic activity by measuring the urinary volume after peroral administering 3.40 uM/Kg of drug in rats; type: ADME, organism-based, Urine; details: in vivo, po
Rattus norvegicus [10] = assay: Total electrolytic excretion of potassium in urine of rats after peroral administration of 0 uM/Kg of drug; type: ADME, organism-based; details: in vivo, po
Canis familiaris [11] = assay: Total electrolytic excretion of chlorine in urine of dogs after peroral administration of 3.40 uM/Kg of drug; type: ADME, organism-based, Canis lupus familiaris; details: dog, in vivo, po
Rattus norvegicus [12] = assay: Total electrolytic excretion of chlorine in urine of rats after peroral administration of 0 uM/Kg of drug; type: ADME, organism-based; details: in vivo, po
Rattus norvegicus [13] = assay: Total electrolytic excretion of potassium in urine of rats after peroral administration of 34.0 uM/Kg of drug; type: ADME, organism-based; details: in vivo, po
Rattus norvegicus [14] = assay: Tested for the diuretic activity by measuring the urinary volume after peroral administering 34.0 uM/Kg of drug in rats; type: ADME, organism-based, Urine; details: in vivo, po
Rattus norvegicus [15] = assay: Total electrolytic excretion of sodium in urine of rats after peroral administration of 34.0 uM/Kg of drug; type: ADME, organism-based; details: in vivo, po
Rattus norvegicus [16] = species: Rattus norvegicus; details: in vivo, po
Description: Total electrolytic excretion of potassium in urine of rats after peroral administration of 10.1 uM/Kg of drug

Rattus norvegicus [17] = assay: Total electrolytic excretion of potassium in urine of rats after peroral administration of 1.01 uM/Kg of drug; type: ADME, organism-based; details: in vivo, po
Rattus norvegicus [18] = assay: Tested for the diuretic activity by measuring the urinary volume after peroral administering 10.1 uM/Kg of drug in rats; type: ADME, organism-based, Urine; details: in vivo, po
Canis familiaris [19] = assay: Tested for the diuretic activity by measuring the urinary volume after peroral administering 3.40 uM/Kg of drug in dogs; type: ADME, organism-based, Canis lupus familiaris, Urine; details: dog, in vivo, po
Canis familiaris [20] = species: Canis familiaris; details: dog, in vivo, po
Description: Total electrolytic excretion of potassium in urine of dogs after peroral administration of 10.1 uM/Kg of drug

Rattus norvegicus [21] = assay: Total electrolytic excretion of chlorine in urine of rats after peroral administration of 3.40 uM/Kg of drug; type: ADME, organism-based; details: in vivo, po
Canis familiaris [22] = assay: Total electrolytic excretion of potassium in urine of dogs after peroral administration of 3.40 uM/Kg of drug; type: ADME, organism-based, Canis lupus familiaris; details: dog, in vivo, po
Rattus norvegicus [23] = assay: Total electrolytic excretion of chlorine in urine of rats after peroral administration of 34.0 uM/Kg of drug; type: ADME, organism-based; details: in vivo, po
Rattus norvegicus [24] = assay: Total electrolytic excretion of chlorine in urine of rats after peroral administration of 58.4 uM/Kg of drug; type: ADME, organism-based; details: in vivo, po
Rattus norvegicus [25] = assay: Ratio of Total electrolytic excretion of sodium and potassium in urine of rats after peroral administration of 58.4 uM/Kg of drug; type: ADME, organism-based; details: in vivo, po
Rattus norvegicus [26] = assay: Tested for the diuretic activity by measuring the urinary volume after peroral administering 58.4 uM/Kg of drug in rats; type: ADME, organism-based, Urine; details: in vivo, po
Rattus norvegicus [27] = assay: Tested for the diuretic activity by measuring the urinary volume after peroral administering 19.5 uM/Kg of drug in rats; type: ADME, organism-based, Urine; details: in vivo, po
Rattus norvegicus [28] = assay: Ratio of Total electrolytic excretion of sodium and potassium in urine of rats after intravenous administration of 5.84 uM/Kg of drug; type: ADME, organism-based; details: in vivo
Rattus norvegicus [29] = assay: Total electrolytic excretion of potassium in urine of rats after peroral administration of 58.4 uM/Kg of drug; type: ADME, organism-based; details: in vivo, po
Rattus norvegicus [30] = assay: Total electrolytic excretion of potassium in urine of rats after peroral administration of 19.5 uM/Kg of drug; type: ADME, organism-based; details: in vivo, po
Rattus norvegicus [31] = assay: Total electrolytic excretion of sodium in urine of rats after peroral administration of 195 uM/Kg of drug; type: ADME, organism-based; details: in vivo, po
Rattus norvegicus [32] = assay: Total electrolytic excretion of sodium in urine of rats after peroral administration of 58.4 uM/Kg of drug; type: ADME, organism-based; details: in vivo, po
Rattus norvegicus [33] = assay: Total electrolytic excretion of potassium in urine of rats after peroral administration of 195 uM/Kg of drug; type: ADME, organism-based; details: in vivo, po
Rattus norvegicus [34] = assay: Total electrolytic excretion of chlorine in urine of rats after peroral administration of 195 uM/Kg of drug; type: ADME, organism-based; details: in vivo, po
Rattus norvegicus [35] = assay: Total electrolytic excretion of sodium in urine of rats after peroral administration of 19.5 uM/Kg of drug; type: ADME, organism-based; details: in vivo, po
Rattus norvegicus [36] = assay: Ratio of Total electrolytic excretion of sodium and potassium in urine of rats after peroral administration of 195 uM/Kg of drug; type: ADME, organism-based; details: in vivo, po
Rattus norvegicus [37] = assay: Ratio of Total electrolytic excretion of sodium and potassium in urine of rats after intravenous administration of 19.5 uM/Kg of drug; type: ADME, organism-based; details: in vivo
Rattus norvegicus [38] = assay: Total electrolytic excretion of chlorine in urine of rats after peroral administration of 19.5 uM/Kg of drug; type: ADME, organism-based; details: in vivo, po
Rattus norvegicus [39] = assay: Tested for the diuretic activity by measuring the urinary volume after peroral administering 195 uM/Kg of drug in rats; type: ADME, organism-based, Urine; details: in vivo, po
Rattus norvegicus [40] = assay: Ratio of Total electrolytic excretion of sodium and potassium in urine of rats after peroral administration of 19.5 uM/Kg of drug; type: ADME, organism-based; details: in vivo, po

## NS(=O)(=O)c1cc2c(cc1Cl)NCNS2(=O)=O [HYDROCHLOROTHIAZIDE]
Rattus norvegicus [1]
  V: 4.4 mL
Rattus norvegicus [2]
  Excretion Na+: 1.79 m equiv
Rattus norvegicus [3]
  V: 6.8 mL
Rattus norvegicus [4]
  Excretion K+: 0.39 m equiv
Canis familiaris [5]
  Excretion Na+: 16.1 m equiv
Rattus norvegicus [6]
  Excretion Na+: 0.82 m equiv
Rattus norvegicus [7]
  Excretion Na+: 1.36 m equiv
Canis familiaris [8]
  V: 85 mL
Rattus norvegicus [9]
  V: 10 mL
Rattus norvegicus [10]
  Excretion K+: 0.27 m equiv
Canis familiaris [11]
  Excretion Cl-: 17.3 m equiv
Rattus norvegicus [12]
  Excretion Cl-: 0.8 m equiv
Rattus norvegicus [13]
  Excretion K+: 0.4 m equiv
Rattus norvegicus [14]
  V: 11.3 mL
Rattus norvegicus [15]
  Excretion Na+: 2.03 m equiv
Rattus norvegicus [16]
  Excretion K+: 0.37 m equiv
Rattus norvegicus [17]
  Excretion K+: 0.32 m equiv
Rattus norvegicus [18]
  V: 10.2 mL
Canis familiaris [19]
  V: 76 mL
Canis familiaris [20]
  Excretion K+: 3.4 m equiv
Rattus norvegicus [21]
  Excretion Cl-: 1.91 m equiv
Canis familiaris [22]
  Excretion K+: 3.3 m equiv
Rattus norvegicus [23]
  Excretion Cl-: 2.17 m equiv

## C1CN(/C(=N\C23CC4CC(CC(C4)C2)C3)NC23CC4CC(CC(C4)C2)C3)CCO1
Rattus norvegicus [24]
  Excretion Cl-: 1.97 m equiv
Rattus norvegicus [25]
  Ratio: 7.5 [Na+]/[K+]
Rattus norvegicus [26]
  V: 12.8 mL
Rattus norvegicus [27]
  V: 10.1 mL
Rattus norvegicus [28]
  Ratio: 8 [Na+]/[K+]
Rattus norvegicus [29]
  Excretion K+: 0.27 m equiv
Rattus norvegicus [30]
  Excretion K+: 0.23 m equiv
Rattus norvegicus [31]
  Excretion Na+: 1.9 m equiv
Rattus norvegicus [32]
  Excretion Na+: 2.04 m equiv
Rattus norvegicus [33]
  Excretion K+: 0.25 m equiv
Rattus norvegicus [34]
  Excretion Cl-: 1.66 m equiv
Rattus norvegicus [35]
  Excretion Na+: 1.51 m equiv
Rattus norvegicus [36]
  Ratio: 7.6 [Na+]/[K+]
Rattus norvegicus [37]
  Ratio: 6.8
Rattus norvegicus [38]
  Excretion Cl-: 1.52 m equiv
Rattus norvegicus [39]
  V: 10.9 mL
Rattus norvegicus [40]
  Ratio: 6.6 [Na+]/[K+]
